Reference: US7763615B2, “Ecteinascidin analogs for use as antitumour agents” (priority 2001, dated 2010)
Where two headings read alike, the source gives them in different places.

Key:
Type in all cases: cell-based
[1] = test system: A549; assay: cells; settings: A549, 48 hours exposure, SRB; for GI50: read-out: GI50; for CC50: read-out: LC50 (the source's name); for IC (TGI): read-out: TGI
From the text: (§1) The finality of these assays is to interrupt the growth of a “in vitro” tumor cell culture by means of a continued exhibition of the cells to the sample to be testing.
(§2) A colorimetric type of assay, using sulphorhodamine B (SRB) reaction has been adapted for a quantitative measurement of cell growth and viability [following the technique described by Philip Skehan, et al. (1990), New colorimetric cytotoxicity assay for anticancer drug screening, J. Natl. Cancer Inst., 82:1107-1112]
(§3) This form of the assay employs 96 well cell culture microplates of 9 mm diameter (Faircloth, 1988; Mosmann, 1983). Most of the cell lines are obtained from American Type Culture Collection (ATCC) derived from different human cancer types.
(§4) Cells are maintained in RPMI 1640 10% FBS, supplemented with 0.1 g/l penicillin and 0.1 g/l streptomycin sulphate and then incubated at 37° C., 5% CO2 and 98% humidity. For the experiments, cells were harvested from subconfluent cultures using trypsin and resuspended in fresh medium before plating.
(§5) Cells are seeded in 96 well microtiter plates, at 5×10^3 cells per well in aliquots of 195 μl medium, and they are allowed to attach to the plate surface by growing in drug free medium for 18 hours. Afterward, samples are added in aliquots of 5 μl in a ranging from 10 to 10^−8 μg/ml, dissolved in DMSO/EtOH/PBS (0.5:0.5:99). After 48 hours exposure, the antitumor effect are measured by the SRB methodology: cells are fixed by adding 50 μl of cold 50% (wt/vol) trichloroacetic acid (TCA) and incubating for 60 minutes at 4° C. Plates are washed with deionized water and dried. One hundred μl of SRB solution (0.4% wt/vol in 1% acetic acid) is added to each microtiter well and incubated for 10 minutes at room temperature. Unbound SRB is removed by washing with 1% acetic acid. Plates are air dried and bound stain is solubilized with Tris buffer. Optical densities are read on a automated spectrophotometric plate reader at a single wavelength of 490 nm.
(§6) The values for mean+/− SD of data from triplicate wells are calculated. Some parameters for cellular responses can be calculated: GI=growth inhibition, TGI=total growth inhibition (cytostatic effect) and LC=cell killing (cytotoxic effect).

[2] = test system: HT29; assay: cells; settings: HT29, 48 hours exposure, SRB; for GI50 / IC (TGI) / CC50: Homo sapiens, HT-29, 48 h; for CC50: read-out: LC50 (the source's name)
From the text: as §1, §2, §3, §4, §5, §6

[3] = test system: H-MEC-1; assay: Inhibition of cells growth by colorimetric assay (SRB), H-MEC-1; settings: Homo sapiens, H-MEC-1, 48 hours exposure, SRB; for GI50 / IC (TGI): HMEC-1, 48 h; for CC50: HMEC-1, read-out: LC50 (the source's name)
From the text: as §1, §2, §3, §4, §5, §6

Compound	GI50 ([1]; Homo sapiens, A549, 48 h) [µM]	CC50 ([1]; Homo sapiens, A549, 48 h) [µM]	IC (TGI) ([1]; Homo sapiens, A549, 48 h) [µM]	GI50 [2] [µM]	IC (TGI) [2] [µM]	CC50 [2] [µM]	GI50 [3] [µM]	IC (TGI) [3] [µM]	CC50 [3] [µM]	TGI [1] [Molar]	GI50 [1] [µM]	TGI [2] [Molar]
COc1c(C)cc2c(c1OC(=O)OC(C)(C)C)[C@@H]1C3[C@@H]4SC[C@]5(NCCc6c5[nH]c5ccccc65)C(=O)COC[C@@H](c5c6c(c(C)c(OC(=O)OC(C)(C)C)c54)OCO6)N3[C@@H](C#N)[C@H](C2)N1C (stereo partly drawn) [Compound 58]	0.0891	10.8	1.34	0.23	10.8	10.8	0.0102	10.8	10.8	–	–	–
CCCC(=O)Oc1c(C)c2c(c3c1[C@H]1SC[C@]4(NCCc5c4[nH]c4ccccc54)C(=O)COC[C@@H]3N3C1[C@H]1c4c(cc(C)c(OC)c4O)C[C@@H]([C@@H]3C#N)N1C)OCO2 (stereo partly drawn) [Compound 52]	0.047	943	0.126	0.0793	12.6	12.6	0.347	0.00695	0.0126	–	–	–
C=COC(=O)Oc1c(C)c2c(c3c1[C@H]1SC[C@]4(NCCc5c4[nH]c4ccccc54)C(=O)COC[C@@H]3N3C1[C@H]1c4c(cc(C)c(OC)c4O)C[C@@H]([C@@H]3O)N1C)OCO2 (stereo partly drawn) [Compound 67]	0.000455	0.128	0.00286	0.0019	0.128	12.8	0.000521	0.128	12.8	–	–	–
CCCC(=O)Oc1c(C)c2c(c3c1[C@H]1SC[C@]4(NCCc5c4[nH]c4ccccc54)C(=O)COC[C@@H]3N3C1[C@H]1c4c(cc(C)c(OC)c4O)C[C@@H]([C@@H]3O)N1C)OCO2 (stereo partly drawn) [Compound 63]	0.00312	3.03	0.00953	0.00388	0.0128	12.8	0.00272	0.0128	12.8	–	–	–
COc1c(C)cc2c(c1O)[C@@H]1C3[C@@H]4SC[C@]5(NCCc6c5[nH]c5ccccc65)C(=O)COC[C@@H](c5c6c(c(C)c(OC(=O)OC(C)(C)C)c54)OCO6)N3[C@@H](O)[C@H](C2)N1C (stereo partly drawn) [Compound 65]	0.00205	0.0479	0.0063	0.000856	0.0205	12.3	0.000613	0.0435	12.3	–	–	–
COc1c(C)cc2c(c1O)[C@@H]1C3[C@@H]4SC[C@]5(NCCc6c5[nH]c5ccccc65)C(=O)COC[C@@H](c5c6c(c(C)c(OC(=O)C(F)(F)F)c54)OCO6)N3[C@@H](C#N)[C@H](C2)N1C (stereo partly drawn) [Compound 56]	0.0093	3.79	0.236	0.0474	12.2	12.2	0.00417	0.00965	0.378	–	–	–
C=COC(=O)Oc1c(C)c2c(c3c1[C@H]1SC[C@]4(NCCc5c4[nH]c4ccccc54)C(=O)COC[C@@H]3N3C1[C@H]1c4c(cc(C)c(OC)c4O)C[C@@H]([C@@H]3C#N)N1C)OCO2 (stereo partly drawn) [Compound 59]	0.00266	4.98	2.26	0.0038	0.0184	12.6	0.004	0.0126	12.6	–	–	–
CCCCCCCC(=O)Oc1c(C)c2c(c3c1[C@H]1SC[C@]4(NCCc5c4[nH]c4ccccc54)C(=O)COC[C@@H]3N3C1[C@H]1c4c(cc(C)c(OC)c4O)C[C@@H]([C@@H]3C#N)N1C)OCO2 (stereo partly drawn) [Compound 61]	11.8	11.8	11.8	11.8	11.8	11.8	0.394	0.805	3.4	–	–	–
COc1c(C)cc2c(c1O)[C@@H]1C3[C@@H]4SC[C@]5(NC(C)Cc6c5[nH]c5ccccc65)C(=O)COC[C@@H](c5c6c(c(C)c(OC(C)=O)c54)OCO6)N3[C@@H](C#N)[C@H](C2)N1C (stereo partly drawn) [Compound 18]	–	12.9	–	0.00562	0.129	12.9	–	–	–	1.29E−07	0.00677	–
C=CCOC(=O)Oc1c(C)c2c(c3c1[C@H]1SC[C@]4(NCCc5c4[nH]c4ccccc54)C(=O)COC[C@@H]3N3C1[C@H]1c4c(cc(C)c(OC)c4O)C[C@@H]([C@@H]3O)N1C)OCO2 (stereo partly drawn) [Compound 64]	0.00164	0.11	0.00683	0.00191	0.0125	12.5	0.00031	0.0125	12.5	–	–	–
C=CCOc1c(OC)c(C)cc2c1[C@@H]1C3[C@@H]4SC[C@]5(C(=O)COC[C@@H](c6c7c(c(C)c(OC(C)=O)c64)OCO7)N3[C@@H](O)[C@H](C2)N1C)c1[nH]c2ccccc2c1CCN5CC=C (stereo partly drawn) [Compound 49]	2.64	9.37	4.97	4.5	12.6	12.6	1.99	4.12	8.54	–	–	–
COc1c(C)cc2c(c1O)[C@@H]1C3[C@@H]4SC[C@]5(NCCc6c5[nH]c5ccccc65)C(=O)COC[C@@H](c5c6c(c(C)c(OC(=O)CCCl)c54)OCO6)N3[C@@H](C#N)[C@H](C2)N1C (stereo partly drawn) [Compound 53]	0.261	12.2	0.784	0.309	1.23	12.3	0.132	12.3	12.3	–	–	–
COc1c(C)cc2c(c1OC(C)(C)C)[C@@H]1C3[C@@H]4SC[C@]5(NCCc6c5[nH]c5ccccc65)C(=O)COC[C@@H](c5c6c(c(C)c(OC(=O)OC(C)(C)C)c54)OCO6)N3[C@@H](O)[C@H](C2)N1C (stereo partly drawn) [Compound 66]	0.0209	0.376	0.0575	0.028	0.113	11	0.0207	0.0804	11	–	–	–
COc1c(C)cc2c(c1O)[C@@H]1C3[C@@H]4SC[C@]5(NC(C)Cc6c5[nH]c5ccc(F)cc65)C(=O)COC[C@@H](c5c6c(c(C)c(OC(C)=O)c54)OCO6)N3[C@@H](C#N)[C@H](C2)N1C (stereo partly drawn) [Compound 16]	–	4.44	–	0.0428	–	12.8	–	–	–	1.28E−07	0.0367	1.28E−07
COc1ccc2[nH]c3c(c2c1)CCN[C@]31CS[C@@H]2c3c(OC(C)=O)c(C)c4c(c3[C@H](COCC1=O)N1C2[C@H]2c3c(cc(C)c(OC)c3O)C[C@@H]([C@@H]1C#N)N2C)OCO4 (stereo partly drawn) [Compound 2]	0.00063	63	0.0063	0.00126	0.00126	63	–	–	–	–	–	–
